Test results taken from patent publication US20170087174A1, “COMBINATION THERAPY REGIMEN FOR TREATMENT OF HCV” (JANSSEN PHARMACEUTICALS, INC., priority 2015, published 2017).
“Also recorded” adds a separate entry of the source. Where two headings read alike, the source gives them in different places. One block for each compound: values may come before it.

Key:
[1] = Phase 2a open-label combination study: pharmacokinetics (exposure); type: in vivo, human
Protocol: A randomized, Phase 2a, open-label study was carried out to evaluate the safety, pharmacokinetics and efficacy of the combination of Compound (III), Odalasvir and Simeprevir in Genotype 1 treatment-naïve subjects with chronic hepatitis C. Other treatment-naïve subjects included Genotype 2, 3, 4, 5 and 6.
The aim of the study was to determine the efficacy, pharmacokinetics (PK), and safety of Compound (III)+Odalasvir±SMV in HCV-infected subjects.
This was an open-label study evaluating various dosing regimens of Compound (III)+Odalasvir±SMV for 6-8 weeks in treatment-naïve HCV-infected subjects with varying clinical characteristics (e.g., GT 1 or 3, presence/absence of compensated Child Pugh A cirrhosis). Efficacy, PK and safety evaluations were conducted during and through 24 weeks post dosing. Up to 15 cohorts were enrolled; data was generated from cohorts that have completed dosing.

[2] = tested on: CYP (cytochrome P450 enzymes); experiment: CYP inhibition in vitro; conditions: for CYP inhibition potential (in words): on any CYP
P-gp = P-gp (Homo sapiens, UniProt P08183); conditions: in vitro, cited from earlier work
Sequence of P-gp (P08183 whole entry): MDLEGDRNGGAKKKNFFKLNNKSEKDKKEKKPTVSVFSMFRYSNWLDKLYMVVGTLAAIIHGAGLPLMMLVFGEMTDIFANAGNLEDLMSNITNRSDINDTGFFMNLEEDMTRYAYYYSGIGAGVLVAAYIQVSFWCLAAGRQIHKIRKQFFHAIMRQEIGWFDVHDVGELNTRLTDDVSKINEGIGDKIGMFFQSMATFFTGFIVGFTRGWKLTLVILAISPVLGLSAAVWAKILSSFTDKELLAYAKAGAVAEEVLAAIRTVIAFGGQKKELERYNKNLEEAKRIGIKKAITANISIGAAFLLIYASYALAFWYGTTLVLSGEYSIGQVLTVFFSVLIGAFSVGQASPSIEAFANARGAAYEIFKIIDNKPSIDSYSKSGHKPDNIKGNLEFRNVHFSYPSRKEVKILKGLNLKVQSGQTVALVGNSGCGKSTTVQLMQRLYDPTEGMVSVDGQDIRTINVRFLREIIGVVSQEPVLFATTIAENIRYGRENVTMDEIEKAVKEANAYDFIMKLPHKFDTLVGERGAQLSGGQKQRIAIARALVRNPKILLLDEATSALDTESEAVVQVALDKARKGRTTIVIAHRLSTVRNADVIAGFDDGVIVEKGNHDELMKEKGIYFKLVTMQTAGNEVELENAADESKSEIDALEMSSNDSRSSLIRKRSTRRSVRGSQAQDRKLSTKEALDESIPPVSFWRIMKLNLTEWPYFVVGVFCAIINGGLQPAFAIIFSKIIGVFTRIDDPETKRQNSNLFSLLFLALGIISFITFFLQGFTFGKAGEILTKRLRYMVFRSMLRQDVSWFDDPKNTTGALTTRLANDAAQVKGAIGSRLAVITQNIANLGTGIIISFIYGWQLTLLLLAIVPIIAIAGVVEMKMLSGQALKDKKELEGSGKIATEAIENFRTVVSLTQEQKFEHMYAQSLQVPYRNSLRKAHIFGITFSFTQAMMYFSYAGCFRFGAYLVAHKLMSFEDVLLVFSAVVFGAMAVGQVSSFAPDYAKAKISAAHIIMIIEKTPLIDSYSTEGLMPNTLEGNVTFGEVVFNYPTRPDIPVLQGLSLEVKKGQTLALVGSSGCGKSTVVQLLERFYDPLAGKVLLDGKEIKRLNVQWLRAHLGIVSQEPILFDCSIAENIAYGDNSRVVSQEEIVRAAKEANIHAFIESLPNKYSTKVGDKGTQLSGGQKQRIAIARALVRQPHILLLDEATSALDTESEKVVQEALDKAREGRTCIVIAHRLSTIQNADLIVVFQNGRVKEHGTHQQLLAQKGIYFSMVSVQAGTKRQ

[3] = PK of single agents vs fixed dose combinations (FDC), single oral dose in healthy volunteers; type: in vivo, human; conditions: for Cmax / AUC(0-t) / AUC(0-inf) / Tmax: human, plasma, oral; for Cmax: read-out: Cmax (mean ± SD); for AUC(0-t): read-out: AUClast (mean ± SD); for AUC(0-inf): read-out: AUC∞ (mean ± SD); for Tmax: read-out: tmax (median [range])
Protocol: SMV (100 mg), ODV (50 mg), and Compound (III) (800 mg) were administered as three different formulations or together as single doses in vivo to healthy volunteers. The arms of the study included: • Arm 1 (Reference Arm): Single oral doses of single agents, one SMV 100-mg capsule, one ODV 50-mg tablet as granule layered solid dispersion with copovidone and poloxamers, and two Compound (III) 400-mg tablets, administered together. • Arm 2: Single oral dose of fixed dose combination (FDC02): SMV 100 mg+ODV 50 mg as a spray dried solid dispersion with HPMC-AS L in a ratio ODV/HPMC-AS L 1/1 w/w+Compound (III) 800 mg • Arm 3: Single oral dose of fixed dose combination (FDC04): SMV 100 mg+ODV 50 mg as a spray dried solid dispersion with HPMC-AS L in a ratio ODV/HPMC-AS L 1/3 w/w+Compound (III) 800 mg • Arm 4: Single oral dose of fixed dose combination (FDC01): SMV 100 mg+ODV 50 mg as a spray dried solid dispersion with copovidone and poloxamers+Compound (III) 800 mg
PK parameters, including Cmax, tmax, AUClast, and AUC∞ were measured for Compound (III), ODV, SMV, and metabolites Compound A-I and Compound A-3 for each Arm of the study. Arms that included fixed dose combinations (FDC) (Arm 2, Arm 3, and Arm 4) were then compared to a single oral dose (Arm 1, the reference Arm). Table 9, Table 10, Table 11, Table 12 and Table 13 display relevant PK parameters and FIG. 9, FIG. 10, FIG. 11, FIG. 12, and FIG. 13 depict the plasma concentration over time of SMV, ODV, Compound A-1, and Compound A-3 for each Arm of the study.

[4] = Phase-1 drug-drug interaction study in healthy volunteers (Compound (III) 800 mg, SMV 150 mg, Odalasvir 150 mg loading then 50 mg, once daily): plasma PK; type: in vivo, human; conditions: for AUC0-24 / Cmax: human
From the text: The following daily doses were employed:

OATP1B1 = biological target: T1, OATP1B1 (Homo sapiens, UniProt Q9Y6L6); conditions: in vitro, cited from earlier work
T1 sequence (Q9Y6L6 1-691): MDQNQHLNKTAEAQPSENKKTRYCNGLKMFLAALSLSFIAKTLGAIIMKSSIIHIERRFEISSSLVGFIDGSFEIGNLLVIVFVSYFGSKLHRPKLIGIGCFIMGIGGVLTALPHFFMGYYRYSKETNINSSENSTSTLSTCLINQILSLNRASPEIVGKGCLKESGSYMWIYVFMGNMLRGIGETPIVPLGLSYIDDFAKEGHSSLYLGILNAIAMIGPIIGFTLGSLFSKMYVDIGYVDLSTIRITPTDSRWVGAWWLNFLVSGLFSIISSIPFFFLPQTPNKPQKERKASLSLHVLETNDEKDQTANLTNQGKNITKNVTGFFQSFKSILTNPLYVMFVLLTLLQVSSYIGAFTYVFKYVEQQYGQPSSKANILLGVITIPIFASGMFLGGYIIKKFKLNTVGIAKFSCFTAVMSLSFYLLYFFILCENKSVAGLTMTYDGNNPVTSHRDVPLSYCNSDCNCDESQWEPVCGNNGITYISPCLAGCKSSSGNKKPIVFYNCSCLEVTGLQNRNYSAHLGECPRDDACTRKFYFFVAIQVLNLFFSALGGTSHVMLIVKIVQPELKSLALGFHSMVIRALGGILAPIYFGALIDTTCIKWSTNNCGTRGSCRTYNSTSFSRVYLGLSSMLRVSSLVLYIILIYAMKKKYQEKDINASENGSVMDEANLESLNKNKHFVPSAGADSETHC

[5] = Arm 1 (reference): single agents together
[6] = Arm 2 (FDC02) vs reference (Arm 1)
[7] = Arm 3 (FDC04) vs reference (Arm 1)
[8] = Arm 4 (FDC01) vs reference (Arm 1)
[9] = Arm 1 (reference): single agents together, SMV 100-mg capsule, ODV 50-mg tablet, two Compound (III) 400-mg tablets
[10] = Arm 2: FDC02, SMV 100 mg + ODV 50 mg (ODV/HPMC-AS L 1/1 w/w) + Compound (III) 800 mg
[11] = Arm 3: FDC04, SMV 100 mg + ODV 50 mg (ODV/HPMC-AS L 1/3 w/w) + Compound (III) 800 mg
[12] = Arm 4: FDC01, SMV 100 mg + ODV 50 mg (copovidone and poloxamers) + Compound (III) 800 mg

observed exposure versus anticipated ([1]; Cohort 1 / group (i)): higher than anticipated
decrease of exposure with dosing frequency ([1]; reducing ODV dosing from QD to QOD): proportionally
CYP inhibition potential (in words) [2]: does not inhibit
inhibition of any CYP ([2]; up to 10 μM): no inhibition
t1/2term (mean ± SD) [3, 5]: 168.6 ± 21.7 h
Least Square Means Ratio, AUClast [3, 6]: 89.66%
Least Square Means Ratio, Cmax [3, 6]: 81.00%
t1/2term (mean ± SD) ([3]; Arm 2: FDC02): 169.0 ± 24.5 h
Least Square Means Ratio, AUClast [3, 7]: 182.32%
Least Square Means Ratio, Cmax [3, 7]: 165.30%
t1/2term (mean ± SD) ([3]; Arm 3: FDC04): 176.0 ± 29.5 h
Least Square Means Ratio, AUClast [3, 8]: 180.14%
Least Square Means Ratio, Cmax [3, 8]: 163.29%
t1/2term (mean ± SD) ([3]; Arm 4: FDC01): 167.8 ± 22.4 h
Cmax [3, 9]: 186 ± 60.4 ng/mL
AUC(0-t) [3, 5]: 6320 ± 2320 ng·h/mL
AUC(0-inf) [3, 5]: 7080 ± 2140 ng·h/mL
Tmax [3, 5]: 6 h
Cmax [3, 10]: 151 ± 54 ng/mL
AUC(0-t) ([3]; Arm 2: FDC02): 5590 ± 1890 ng·h/mL
AUC(0-inf) ([3]; Arm 2: FDC02): 7040 ± 2130 ng·h/mL
Tmax ([3]; Arm 2: FDC02): 6 h
Cmax [3, 11]: 301 ± 80.5 ng/mL
AUC(0-t) ([3]; Arm 3: FDC04): 11500 ± 4390 ng·h/mL
AUC(0-inf) ([3]; Arm 3: FDC04): 14800 ± 5120 ng·h/mL
Tmax ([3]; Arm 3: FDC04): 6 h
Cmax [3, 12]: 298 ± 81.7 ng/mL
AUC(0-t) ([3]; Arm 4: FDC01): 11100 ± 3350 ng·h/mL
AUC(0-inf) ([3]; Arm 4: FDC01): 15700 ± 3560 ng·h/mL
Tmax ([3]; Arm 4: FDC01): 6 h
increase of exposure, effect of the three Compounds ([4]; Compound (III) + SMV + ODV co-administered vs given alone): 1.5 fold
AUC0-24 ([4]; both sexes, plasma, oral, Group 1, Day 20 (ODV + SMV), read-out: AUC0-24): 10800 ng·h/mL
Cmax ([4]; both sexes, plasma, oral, Group 1, Day 20 (ODV + SMV), read-out: Cmax): 649 ng/mL
AUC0-24 ([4]; both sexes, plasma, oral, Group 1, Day 23 (SMV + Compound (III) + ODV), read-out: AUC0-24): 12800 ng·h/mL
Cmax ([4]; both sexes, plasma, oral, Group 1, Day 23 (SMV + Compound (III) + ODV), read-out: Cmax): 744 ng/mL
AUC0-24 ([4]; both sexes, plasma, oral, Group 2, Day 10 (ODV alone), read-out: AUC0-24): 8720 ng·h/mL
Cmax ([4]; both sexes, plasma, oral, Group 2, Day 10 (ODV alone), read-out: Cmax): 582 ng/mL
AUC0-24 ([4]; both sexes, plasma, oral, Group 2, Day 13 (ODV + Compound (III)), read-out: AUC0-24): 10200 ng·h/mL
Cmax ([4]; both sexes, plasma, oral, Group 2, Day 13 (ODV + Compound (III)), read-out: Cmax): 669 ng/mL
AUC0-24 ([4]; both sexes, plasma, oral, Group 2, Day 20 (ODV + SMV), read-out: AUC0-24): 14000 ng·h/mL
Cmax ([4]; both sexes, plasma, oral, Group 2, Day 20 (ODV + SMV), read-out: Cmax): 770 ng/mL
AUC0-24 ([4]; both sexes, plasma, oral, Group 2, Day 23 (ODV + Compound (III) + SMV), read-out: AUC0-24): 14800 ng·h/mL
Cmax ([4]; both sexes, plasma, oral, Group 2, Day 23 (ODV + Compound (III) + SMV), read-out: Cmax): 780 ng/mL
increase of exposure caused by SMV ([4]; co-administered with SMV vs without): 1.6 fold
SMILES: COC(=O)N[C@H](C(=O)N1[C@H](c2nc3cc(-c4cc5ccc4CCc4ccc(c(-c6ccc7[nH]c([C@@H]8C[C@@H]9CCCC[C@@H]9N8C(=O)[C@@H](NC(=O)OC)C(C)C)nc7c6)c4)CC5)ccc3[nH]2)C[C@@H]2CCCC[C@@H]21)C(C)C [ODV, Odalasvir]
P-gp inhibition (in words) (P-gp): moderate inhibition
IC50 (P-gp; read-out: Pgp inhibition IC50): 9.5 µM
effect of Compound (III) on exposure / bioavailability ([4]; co-administered with Compound (III)): no apparent effect; also recorded: does not alter
OATP1B1 inhibition (in words) (OATP1B1): no inhibition

SMILES: COc1ccc2c(O[C@@H]3C[C@H]4C(=O)N[C@]5(C(=O)NS(=O)(=O)C6CC6)C[C@H]5/C=C\CCCCN(C)C(=O)[C@@H]4C3)cc(-c3nc(C(C)C)cs3)nc2c1C [SMV, Simeprevir, reference compound]
decrease of exposure with dose ([1]; in vivo): less than proportionally
observed exposure versus anticipated ([1]; in vivo): higher than anticipated
CYP inhibition potential (in words) [2]: limited
P-gp inhibition (in words) (P-gp): strong/moderate
t1/2term (mean ± SD) [3, 5]: 8.3 ± 1.8 h
Least Square Means Ratio, AUClast [3, 6]: 127.79%
Least Square Means Ratio, AUC∞ [3, 6]: 126.19%
Least Square Means Ratio, Cmax [3, 6]: 116.50%
t1/2term (mean ± SD) ([3]; Arm 2: FDC02): 8.7 ± 2.3 h
Least Square Means Ratio, AUClast [3, 7]: 133.85%
Least Square Means Ratio, AUC∞ [3, 7]: 132.28%
Least Square Means Ratio, Cmax [3, 7]: 115.24%
t1/2term (mean ± SD) ([3]; Arm 3: FDC04): 9.1 ± 1.6 h
Least Square Means Ratio, AUClast [3, 8]: 117.50%
Least Square Means Ratio, AUC∞ [3, 8]: 116.00%
Least Square Means Ratio, Cmax [3, 8]: 108.22%
t1/2term (mean ± SD) ([3]; Arm 4: FDC01): 8.5 ± 1.5 h
Cmax [3, 9]: 777 ± 225 ng/mL
AUC(0-t) [3, 5]: 9420 ± 3380 ng·h/mL
AUC(0-inf) [3, 5]: 9920 ± 3430 ng·h/mL
Tmax [3, 5]: 6 h
Cmax [3, 10]: 942 ± 431 ng/mL
AUC(0-t) ([3]; Arm 2: FDC02): 12700 ± 6260 ng·h/mL
AUC(0-inf) ([3]; Arm 2: FDC02): 13200 ± 6430 ng·h/mL
Tmax ([3]; Arm 2: FDC02): 6 h
Cmax [3, 11]: 906 ± 321 ng/mL
AUC(0-t) ([3]; Arm 3: FDC04): 12900 ± 5830 ng·h/mL
AUC(0-inf) ([3]; Arm 3: FDC04): 13400 ± 6020 ng·h/mL
Tmax ([3]; Arm 3: FDC04): 6 h
Cmax [3, 12]: 856 ± 318 ng/mL
AUC(0-t) ([3]; Arm 4: FDC01): 11600 ± 6300 ng·h/mL
AUC(0-inf) ([3]; Arm 4: FDC01): 12100 ± 6410 ng·h/mL
Tmax ([3]; Arm 4: FDC01): 6 h
AUC0-24 ([4]; both, in vivo): 41258 ng·h/mL
Cmax ([4]; both, in vivo): 2957 ng/mL
OATP1B1 inhibition (in words) (OATP1B1): strong in vitro inhibition
IC50 (OATP1B1; read-out: OATP1B1 inhibition IC50): 0.3 µM
